One data set relates to human plasma proteins. Nature of the data set: Plasma protein binding assay (equilibrium dialysis). The data set is classed as in vitro ADME. The note with it: 2 μM, dialysis 4 hours at 37° C. On the procedure: (§1) The dialysis device used in this example is a 96-well equilibrium dialysis plate (Cat #1006, HT Dialysis LLC, Gales Gerry, CT), and HTD 96 a/b dialysis membrane strips (Cat #1101, MWCO 12-14 kDa, HT Dialysis LLC). The dialysis device was assembled following the manufacturer's instructions.
(§2) The dialysis membrane strips were soaked in ultra-pure water at room temperature for approximately 1 hour. Each membrane strip containing 2 membranes was separated and soaked in 20:80 ethanol/water (v/v) for approximately 20 minutes, after which they were ready for used or were stored in the solution at 2-8° C. for up to a month. Prior to experiment, the membrane was rinsed and soaked for 20 minutes in ultra-pure water.
(§3) On the day of the experiment, the plasma was thawed by running under col tap water and centrifuged at 3220 rpm for 5 minutes to remove any clos. The pH value of the resulting plasma was checked. Only plasma with pH value with 7.0-8.0 could be used.
(§4) Both test and control compounds were dissolved in DMSO to achieve 10 mM stock solutions. Working solutions (400 μM) if test and control compounds were prepared by diluting 10μ of stock solutions with 240 μL of DMSO. Loading matrix solutions (2 μM) of both test and control compounds were prepared by diluting 5 μL of working solutions with 995 μL of blank matrix.
(§5) To prepare the loading matrix containing the test compound or control compounds, aliquots of either test compound working solutions or control compound working solution were spiked into blank matrix to achieve final test concentrations. The concentration of organic solvent in the final solutions were no more than 1% (normally 0.5%). The samples were mixture thoroughly before being used.
(§6) To prepare the time zero (T0) samples to be used for recovery determinations. 50 μL aliquots of loading matrix solution were transferred in triplicate to the sample collection plate. The samples were immediately matched with opposite blank buffer to obtain a final volume of 100 μL of 1:1 matrix/dialysis buffer (v/v) in each well. 500 μL of stop solution were added to these T0 samples. They were then stored at 2-8° C. pending further processes along with other post-dialysis samples.
(§7) To load the dialysis device, an aliquot of 150 μL of the loading matrix was transferred to the donor side of each dialysis well in triplicate, and 150 μL of the dialysis buffer was loaded to the received side of the well. The dialysis was placed in humidified incubator at 37° C. with 5% CO2 on a shaking platform that rated slowly (about 100 rpm) for 4 hours.
(§8) At the end of the dialysis, aliquots of 50 μL of samples were taken from both the buffer side and the matrix side of the dialysis deice. These samples were transferred into new 96-well plates (the sample collection plates). Each sample was mixed with an equal volume of opposite blank matrix (buffer or matrix) to reach a final volume of 100 μL of 1:1 matrix/dialysis buffer (v/v) in each well. All samples were further processed by adding 500 μL of stop solution containing internal standards. The mixture was vortexed and centrifuged at 4000 rpm for about 20 minutes. An aliquot of 100 μL of supernatant of all the samples were then removed for LC-MS/MS analysis.
(§9) The single blank samples were prepared by transferring 50 μL of blank matrix to a 96 well plate and adding 50 μL of blank PBS buffer to each well. The blank plasma must match the species of plasma used in the plasma side of the well. Then the matrix-matched samples were further processed by adding 500 μL of stop solution containing internal standards, following the same sample processing method as the dialysis samples.
(In general: In equilibrium dialysis only unbound substance equilibrates across the membrane.)

Assay in data set [1]: as above
Type of data set: in vitro ADME. The note with it: human plasma, dialysis 4 hours at 37° C. The procedure:
as §1, §2, §3, §4, §5, §6, §7, §8, §9

Data set [2] can be described thus: Metabolic stability in human liver microsomes. Type of data set: in vitro ADME. Particulars: 37° C., 0-60 minutes. On the procedure: This example illustrates the metabolic stability of selected compounds in human liver microsomes samples.
Both test and control compound solutions were prepared by diluting 5 μL of the respective stock solutions (10 mM in DMSO) containing either the test or control compound with 495 μL of acetonitrile (ACN) to give intermediate solutions with concentrations of 100 μM (99% ACN).
β-Nicotinamide adenine dinucleotide phosphate tetrasodium salt (NADPH.4Na) was purchased from BONTAC (cat. No. BT04). The NADPH working solution (10 unit/mL) was prepared by combining the appropriate amount of NADPH powder and a MgCl2 solution (10 mM) to give final concentration in the reaction system of 1 unit/mL.
The appropriate concentrations of the microsome working solutions were prepared in 100 mM potassium phosphate buffer.
Cold (4° C.) acetonitrile solution containing 200 ng/mL tolbutamide and 200 ng/mL labetalol (internal standard) was used as the stop solution.
Liver microsomes solution was diluted to 0.56 mg/mL in 100 mM phosphate buffer, and 445 μL of this solution was transferred into pre-warmed (10 minutes) “incubation” plates T60 and NCF60; the “incubation” plates T60 and NCF60 were pre-warmed for 10 minutes at 37° C. with constant shaking.
54 μL of the liver microsome solutions was transferred to the blank plate, followed by addition of 6 μL of the NAPDH cofactor solution and 180 μL of the quenching solution to the same blank plate.
5 μL of the compound working solution (100 μM concentration) was next added to into the “incubation” plates (T60 and NCF60) containing microsomes and mixed 3 times thoroughly. For the NCF60 plate, 50 μL of the buffer solution was added, mixed 3 times thoroughly, and incubated at 37° C. for 60 minutes under constant shaking.
In the “Quenching” plate at T0 (T=0 min), 180 μL of quenching solution and 6 μL of the NAPDH cofactor solution were added, and the resulting plate was chilled to prevent evaporation.
In the T60 plate, after it was thoroughly mixed, 54 μL of the mixture was immediately transferred to the “quenching” plate for the 0-minute time point, followed by addition of 44 μL of NAPDH cofactor solution to the incubation plate (T60). The resulting mixture was then incubated at 37° C. for 60 minutes under constant shaking. At time points of 5, 10, 20, 30 and 60 minutes, 180 μL of the quenching solution was added to the “quenching” plates, followed by serial transfer of 60 μL of the mixture (per time point) from the T60 plate to the “Quenching” plates.
For the NCF60 plates, 60 μL of the sample solution was transferred from the NCF60 incubation plate to the “Quenching” plate containing quenching solution at T=60 min time point. […]

A further data set addresses human PDE-5A1 (Homo sapiens, UniProt O76074). Description: Human PDE-5A1 inhibition assay (fluorescence polarization, FAM-cGMP). The data set is classed as biochemical. The note with it: read-out: IC50 (μM) PDE5A1. For orientation: Fluorescence polarisation rises when a labelled molecule tumbles more slowly, as on binding a larger partner.
In a further data set the target is human PDE-6C (Homo sapiens, UniProt P51160). Nature of the data set: Human PDE-6C inhibition assay (fluorescence polarization, FAM-cGMP). The data set is classed as biochemical. The note with it: read-out: IC50 (μM) PDE6C.

The results in this text go back to patent US20220153746A1, “NITROGEN OXIDE-DONATING PDE-5 AND/OR PDE-6 INHIBITOR COMPOUNDS, AND USES THEREOF” (ILDONG PHARMACEUTICAL CO., LTD., priority 2020, published 2022).

Some results are limits rather than exact numbers.

human PDE-6C, sequence (P51160 whole entry): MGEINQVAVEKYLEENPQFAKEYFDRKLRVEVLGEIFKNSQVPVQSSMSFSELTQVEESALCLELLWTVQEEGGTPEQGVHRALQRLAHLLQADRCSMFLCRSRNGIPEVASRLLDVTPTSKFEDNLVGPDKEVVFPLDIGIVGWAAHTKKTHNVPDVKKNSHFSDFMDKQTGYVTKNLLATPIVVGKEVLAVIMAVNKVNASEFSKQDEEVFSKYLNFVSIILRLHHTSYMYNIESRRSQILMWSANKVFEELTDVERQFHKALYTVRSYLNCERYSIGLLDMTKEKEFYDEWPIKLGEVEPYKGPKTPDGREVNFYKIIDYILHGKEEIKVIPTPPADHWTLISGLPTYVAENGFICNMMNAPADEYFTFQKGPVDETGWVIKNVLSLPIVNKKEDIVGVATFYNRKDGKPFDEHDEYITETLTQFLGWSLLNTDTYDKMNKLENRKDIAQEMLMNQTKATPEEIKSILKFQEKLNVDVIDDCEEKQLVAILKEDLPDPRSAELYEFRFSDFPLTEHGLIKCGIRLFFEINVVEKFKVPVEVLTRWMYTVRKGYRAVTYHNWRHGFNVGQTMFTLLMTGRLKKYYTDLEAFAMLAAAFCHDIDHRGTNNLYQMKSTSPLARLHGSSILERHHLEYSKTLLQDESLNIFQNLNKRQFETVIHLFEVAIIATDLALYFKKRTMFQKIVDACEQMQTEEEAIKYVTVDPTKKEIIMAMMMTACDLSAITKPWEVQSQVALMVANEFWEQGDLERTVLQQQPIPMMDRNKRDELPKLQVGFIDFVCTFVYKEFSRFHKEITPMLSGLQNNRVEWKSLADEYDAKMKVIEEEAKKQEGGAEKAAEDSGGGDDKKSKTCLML

As for `CCCc1nn(C)c2c(=O)[nH]c(-c3cc(S(=O)(=O)N4CC(NCCCO)C4)ccc3OCC)nc12` [Compound 10, 5-(2-ethoxy-5-((3-((3-hydroxypropyl)amino)azetidin-1-yl)sulfonyl)phenyl)-1-methy-3-propyl-1,6-dihydro-7H-pyrazolo[4,3-d]pyrimidin-7-one], the “% Bound” value with human plasma proteins is 86.19%. Besides, the fraction unbound (as a rule, free concentration divided by total concentration) at 4 h, 2 µM in data set [1] came to 0.138. Further, the CLint scaled (in general, the capacity of the preparation to metabolise the compound, expressed as a volume cleared per time) at 1 µM in data set [2] turned out to be 55 mL/min/kg.
Regarding `CCCc1nn(C)c2c(=O)[nH]c(-c3cc(S(=O)(=O)N4CC(NCCCO[N+](=O)[O-])C4)ccc3OCC)nc12` [Compound 22, 3-((1-((4-ethoxy-3-(1-methyl-7-oxo-3-propyl-6,7-dihydro-1H-pyrazolo[4,3-d]pyrimidin-5-yl)phenyl)sulfonyl)azetidin-3-yl)amino)propyl nitrate], in the data set on human plasma proteins, the “% Bound” value is listed as 97.53%. Further, the fraction unbound at 4 h, 2 µM in data set [1] is 0.0247. Further, the half-inhibitory concentration (IC50) on human PDE-5A1 and at human PDE-6C was under 0.01 µM in each case. This compound also showed a CLint scaled at 1 µM in data set [2] of 358 mL/min/kg.
